The numbers were not newly measured in US11389520B2, “Modified tetra-acylated neisserial LPS” (priority 2016, dated 2022), which cites them from elsewhere.

This data set deals with human TLR4/MD-2 complex (Homo sapiens, UniProt O00206+Q9Y6Y9).
Chain of human TLR4/MD-2 complex (O00206 24-839): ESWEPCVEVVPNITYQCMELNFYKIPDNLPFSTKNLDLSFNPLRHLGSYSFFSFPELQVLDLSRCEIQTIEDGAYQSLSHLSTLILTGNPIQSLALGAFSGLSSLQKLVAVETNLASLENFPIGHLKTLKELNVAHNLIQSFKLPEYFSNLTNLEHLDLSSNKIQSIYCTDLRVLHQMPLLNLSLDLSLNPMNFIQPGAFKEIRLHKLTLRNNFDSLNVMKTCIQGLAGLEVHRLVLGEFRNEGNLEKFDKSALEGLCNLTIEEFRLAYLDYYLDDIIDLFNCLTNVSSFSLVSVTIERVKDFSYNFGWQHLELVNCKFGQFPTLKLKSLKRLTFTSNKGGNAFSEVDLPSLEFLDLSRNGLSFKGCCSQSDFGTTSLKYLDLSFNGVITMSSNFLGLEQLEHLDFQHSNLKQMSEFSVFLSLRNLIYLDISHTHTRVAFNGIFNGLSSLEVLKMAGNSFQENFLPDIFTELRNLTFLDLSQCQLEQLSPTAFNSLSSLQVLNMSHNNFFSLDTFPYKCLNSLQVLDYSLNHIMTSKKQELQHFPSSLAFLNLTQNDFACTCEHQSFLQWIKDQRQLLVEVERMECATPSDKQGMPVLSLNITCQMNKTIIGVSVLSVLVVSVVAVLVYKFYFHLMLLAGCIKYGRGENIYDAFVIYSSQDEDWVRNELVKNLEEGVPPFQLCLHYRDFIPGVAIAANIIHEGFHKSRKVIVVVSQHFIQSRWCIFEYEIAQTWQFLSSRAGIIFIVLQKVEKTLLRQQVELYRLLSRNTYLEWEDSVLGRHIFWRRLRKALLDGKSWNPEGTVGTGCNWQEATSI
Chain of human TLR4/MD-2 complex (Q9Y6Y9 17-160 limits assumed): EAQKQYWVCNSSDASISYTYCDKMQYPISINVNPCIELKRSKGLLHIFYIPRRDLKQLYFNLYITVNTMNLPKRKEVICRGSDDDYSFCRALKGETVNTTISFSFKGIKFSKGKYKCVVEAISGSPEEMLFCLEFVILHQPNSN

As to `CCCCCCCCCCC[C@@H](O)CC(=O)N[C@H]1[C@H](OC[C@H]2O[C@H](OP(=O)(O)O)[C@H](NC(=O)C[C@H](O)CCCCCCCCCCC)[C@@H](OC(=O)C[C@H](O)CCCCCCCCCCC)[C@@H]2O)O[C@H](CO)[C@@H](OP(=O)(O)O)[C@@H]1OC(=O)C[C@H](O)CCCCCCCCCCC` [lipid IVa], the “Action on the human TLR4/MD-2 complex” value was “antagonist”.
